From patent US20060089378A1 (priority 2004, published 2006)
Where two headings read alike, the source gives them in different places.

Tests used:
[1] = target: T1, Cannabinoid CB1 Receptor (Homo sapiens, UniProt P21554); experiment: Binding assay for CB1 agonists or inverse agonists (radioligand competition, membranes of transfected SK-N-MC cells)
T1 construct: expressed in transfected cells

[2] = target: T2, Cannabinoid CB2 Receptor (Homo sapiens, UniProt P34972); experiment: Binding assay for CB2 agonists or inverse agonists (radioligand competition, membranes of transfected SK-N-MC cells); conditions: for inhibition at 0.2 µM: read-out: Cannabinoid CB2 Receptor Binding percent inhibition
T2 construct: expressed in transfected cells

[3] = target: CB1 receptor (human) (Homo sapiens, UniProt P21554); experiment: cell-based; conditions: for CB1 Receptor Functional Activity (change in functional activity, CRE β-gal): one compound concentration, β-galactosidase activity relative to vehicle treated cells
[4] = human CB1, SK-N-MC cell membranes, calculated by linear regression from percent inhibition at various concentrations, read-out: Cannabinoid CB1 Receptor Binding IC50
[5] = test concentration of 0.2 μM, compounds without an IC50 binding value

T1 sequence (P21554 whole entry): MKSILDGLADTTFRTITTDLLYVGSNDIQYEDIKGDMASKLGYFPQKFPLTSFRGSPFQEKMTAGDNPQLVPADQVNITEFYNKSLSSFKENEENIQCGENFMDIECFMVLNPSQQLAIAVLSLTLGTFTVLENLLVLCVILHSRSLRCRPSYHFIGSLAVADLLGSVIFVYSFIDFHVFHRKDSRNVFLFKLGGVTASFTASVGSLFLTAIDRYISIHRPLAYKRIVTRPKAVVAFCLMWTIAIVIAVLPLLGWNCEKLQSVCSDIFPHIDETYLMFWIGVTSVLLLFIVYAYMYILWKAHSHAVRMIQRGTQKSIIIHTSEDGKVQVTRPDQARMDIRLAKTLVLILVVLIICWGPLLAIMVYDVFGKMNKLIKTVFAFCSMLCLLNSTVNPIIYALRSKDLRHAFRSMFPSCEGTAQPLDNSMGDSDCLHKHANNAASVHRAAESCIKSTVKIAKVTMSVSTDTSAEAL
CB1 receptor (human), sequence (P21554 whole entry): as above
T2 sequence (P34972 whole entry): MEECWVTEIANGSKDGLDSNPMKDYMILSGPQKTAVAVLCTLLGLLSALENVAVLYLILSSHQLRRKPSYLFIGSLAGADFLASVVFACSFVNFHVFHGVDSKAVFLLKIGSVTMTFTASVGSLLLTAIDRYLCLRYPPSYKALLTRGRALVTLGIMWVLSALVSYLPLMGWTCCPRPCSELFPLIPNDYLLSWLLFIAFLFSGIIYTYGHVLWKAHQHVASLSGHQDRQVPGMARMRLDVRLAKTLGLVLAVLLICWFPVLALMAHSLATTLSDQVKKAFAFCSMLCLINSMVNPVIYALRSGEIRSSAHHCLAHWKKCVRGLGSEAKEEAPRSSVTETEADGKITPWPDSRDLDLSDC

SMILES | IC50 [1] [nM] | inhibition at 0.2 µM [2] [%] | EC50 [3] [nM] | IC50 [1, 4] [nM] | IC50 [2] [nM] | CB1 Receptor Functional Activity (change in functional activity, CRE β-gal) [3] [%] | inhibition at 0.2 µM [2, 5] [%] | IC50 ([2]; human CB2, SK-N-MC cell membranes, calculated by linear regression from percent inhibition at various concentrations, read-out: Cannabinoid CB2 Receptor Binding IC50) [nM]
C[C@@H](NC(=O)c1nn(-c2ccc(Cl)cc2Cl)c2c1CN(S(C)(=O)=O)C/C2=C\c1ccc(F)cc1)C1CCCCC1 [Cpd 30, (7E)-1-(2,4-dichloro-phenyl)-7-(4-fluoro-benzylidene)-5-methanesulfonyl-4,5,6,7-tetrahydro-1H-pyrazolo[4,3-c]pyridine-3-carboxylic acid [(1R)-1-cyclohexyl-ethyl]-amide] | 7 | 1 | 1 |  |  |  |  | 
CCOC(=O)CN1C/C(=C\c2ccc(OC)cc2)c2c(c(C(=O)NC(C)c3ccccn3)nn2-c2ccc(Cl)cc2Cl)C1 (stereo not drawn) [Cpd 65, (7E)-[1-(2,4-dichloro-phenyl)-7-(4-methoxy-benzylidene)-3-(1-pyridin-2-yl-ethylcarbamoyl)-1,4,6,7-tetrahydro-pyrazolo[4,3-c]pyridin-5-yl]-acetic acid ethyl ester] | 10 | 39 | 9 |  |  |  |  | 
COC(=O)N1C/C(=C\c2ccc(F)cc2)c2c(c(C(=O)NN3CCCCC3)nn2-c2ccc(Cl)cc2Cl)C1 [Cpd 11, (7E)-1-(2,4-dichloro-phenyl)-7-(4-fluoro-benzylidene)-3-(piperidin-1-ylcarbamoyl)-1,4,6,7-tetrahydro-pyrazolo[4,3-c]pyridine-5-carboxylic acid methyl ester] | 50 | 15 | 40 |  |  |  |  | 
COc1ccc(/C=C2\CN(C(=O)OC(C)(C)C)Cc3c(C(=O)NN4CCCCC4)nn(-c4ccc(Cl)cc4Cl)c32)cc1 [Cpd 37, (7E)-1-(2,4-dichloro-phenyl)-7-(4-methoxy-benzylidene)-3-(piperidin-1-ylcarbamoyl)-1,4,6,7-tetrahydro-pyrazolo[4,3-c]pyridine-5-carboxylic acid tert-butyl ester] | 90 | 27 | 5 |  |  |  |  | 
COc1ccc(/C=C2\CN(S(=O)(=O)N(C)C)Cc3c(C(=O)NN4CCCCC4)nn(-c4ccc(Cl)cc4Cl)c32)cc1 [Cpd 58, (7E)-1-(2,4-dichloro-phenyl)-5-dimethylsulfamoyl-7-(4-methoxy-benzylidene)-4,5,6,7-tetrahydro-1H-pyrazolo[4,3-c]pyridine-3-carboxylic acid piperidin-1-ylamide] | 20 | 53 | 3 |  |  |  |  | 
CC(C)(C)OC(=O)N1CCc2c(c(C(=O)N[C@H]3C4(C)CCC(C4)C3(C)C)nn2Cc2ccccc2)C1 (stereo partly drawn) [Cpd 104, 1-benzyl-3-[(2S)-1,3,3-trimethyl-bicyclo[2.2.1]hept-2-ylcarbamoyl]-1,4,6,7-tetrahydro-pyrazolo[4,3-c]pyridine-5-carboxylic acid tert-butyl ester] |  |  |  | 500 | 20 | −11 |  | 
CCNC(=O)N1C/C(=C\c2ccc(F)cc2)c2c(c(C(=O)NC(C)c3ccccn3)nn2-c2ccc(Cl)cc2)C1 (stereo not drawn) [Cpd 77, (7E)-1-(4-chloro-phenyl)-7-(4-fluoro-benzylidene)-1,4,6,7-tetrahydro-pyrazolo[4,3-c]pyridine-3,5-dicarboxylic acid 5-ethylamide 3-[(1-pyridin-2-yl-ethyl)-amide]] | 80 | 0 | 10 |  |  |  |  | 
COC(=O)N1C/C(=C\c2ccc(F)cc2)c2c(c(C(=O)N[C@@H](C)C3CCCCC3)nn2-c2ccc(Cl)cc2Cl)C1 [Cpd 7, (7E)-3-[(1S)-1-cyclohexyl-ethylcarbamoyl]-1-(2,4-dichloro-phenyl)-7-(4-fluoro-benzylidene)-1,4,6,7-tetrahydro-pyrazolo[4,3-c]pyridine-5-carboxylic acid methyl ester] | 40 |  | 10 |  |  |  | 13 | 
COc1ccc(/C=C2\CN(C(C)=O)Cc3c(C(=O)NN4CCCCC4)nn(-c4ccc(Cl)cc4Cl)c32)cc1 [Cpd 54, (7E)-5-acetyl-1-(2,4-dichloro-phenyl)-7-(4-methoxy-benzylidene)-4,5,6,7-tetrahydro-1H-pyrazolo[4,3-c]pyridine-3-carboxylic acid piperidin-1-ylamide] | 40 | 24 | 5 |  |  |  |  | 
Cc1ccc(S(=O)(=O)N2C/C(=C\c3ccc(F)cc3)c3c(c(C(=O)NC(C)c4ccccn4)nn3-c3ccc(Cl)cc3Cl)C2)cc1 (stereo not drawn) [Cpd 26, (7E)-1-(2,4-dichloro-phenyl)-7-(4-fluoro-benzylidene)-5-(toluene-4-sulfonyl)-4,5,6,7-tetrahydro-1H-pyrazolo[4,3-c]pyridine-3-carboxylic acid (1-pyridin-2-yl-ethyl)-amide] | 30 | 24 | 20 |  |  |  |  | 
CC(NC(=O)c1nn(-c2ccc(Cl)cc2Cl)c2c1CN(C)C/C2=C\c1ccc(F)cc1)c1ccccn1 (stereo not drawn) [Cpd 29, (7E)-1-(2,4-dichloro-phenyl)-7-(4-fluoro-benzylidene)-5-methyl-4,5,6,7-tetrahydro-1H-pyrazolo[4,3-c]pyridine-3-carboxylic acid (1-pyridin-2-yl-ethyl)-amide] | 60 | 6 | 6 |  |  |  |  | 
C[C@@H](NC(=O)c1nn(-c2ccc(Cl)cc2Cl)c2c1CN(C(=O)OC(C)(C)C)C/C2=C\c1ccc(F)cc1)c1ccccc1 [Cpd 2, (7E)-1-(2,4-dichloro-phenyl)-7-(4-fluoro-benzylidene)-3-[(1R)-1-phenyl-ethyl-carbamoyl]-1,4,6,7-tetrahydro-pyrazolo[4,3-c]pyridine-5-carboxylic acid tert-butyl ester] | 30 | 16 | 10 |  |  |  |  | 
COc1ccc(/C=C2\CN(C(C)=O)Cc3c(C(=O)N[C@H](C)c4ccccn4)nn(-c4ccc(Cl)cc4Cl)c32)cc1 [Cpd 97, (7E)-5-acetyl-1-(2,4-dichloro-phenyl)-7-(4-methoxy-benzylidene)-4,5,6,7-tetrahydro-1H-pyrazolo[4,3-c]pyridine-3-carboxylic acid [(1R)-1-pyridin-2-yl-ethyl]-amide] | 7 |  | 10 |  |  |  | 33 | 
CCNC(=O)N1C/C(=C\c2ccc(F)cc2)c2c(c(C(=O)N[C@H](C)c3ccccc3)nn2-c2ccc(Cl)cc2Cl)C1 [Cpd 19, (7E)-1-(2,4-dichloro-phenyl)-7-(4-fluoro-benzylidene)-1,4,6,7-tetrahydro-pyrazolo[4,3-c]pyridine-3,5-dicarboxylic acid 5-ethylamide 3-[(1R)-(1-phenyl-ethyl)-amide]] | 7 | 10 | 5 |  |  |  |  | 
CN(C)C(=O)N1CCc2c(c(C(=O)NC3C4CC5CC(C4)CC3C5)nn2C2CCCCC2)C1 (stereo not drawn) [Cpd 132, 1-cyclohexyl-1,4,6,7-tetrahydro-pyrazolo[4,3-c]pyridine-3,5-dicarboxylic acid 3-adamantan-2-ylamide 5-dimethylamide] |  |  |  | 5500 |  | −42 |  | 200
CC(=O)N1C/C(=C\c2ccc(F)cc2)c2c(c(C(=O)NC(C)c3ccccn3)nn2-c2ccc(Cl)cc2Cl)C1 (stereo not drawn) [Cpd 22, (7E)-5-acetyl-1-(2,4-dichloro-phenyl)-7-(4-fluoro-benzylidene)-4,5,6,7-tetrahydro-1H-pyrazolo[4,3-c]pyridine-3-carboxylic acid (1-pyridin-2-yl-ethyl)-amide] | 30 | 2 | 4 |  |  |  |  | 
COC(=O)N1CCc2c(c(C(=O)NC3C4(C)CCC(C4)C3(C)C)nn2-c2ccccc2)C1 (stereo not drawn) [Cpd 115, 1-phenyl-3-(1,3,3-trimethyl-bicyclo[2.2.1]hept-2-ylcarbamoyl)-1,4,6,7-tetrahydro-pyrazolo[4,3-c]pyridine-5-carboxylic acid methyl ester] | 2700 |  |  |  | 90 | 81 |  | 
CN(C)S(=O)(=O)N1CCc2c(c(C(=O)NC3C4(C)CCC(C4)C3(C)C)nn2C2CCCCC2)C1 (stereo not drawn) [Cpd 127, 1-cyclohexyl-5-dimethylsulfamoyl-4,5,6,7-tetrahydro-1H-pyrazolo[4,3-c]pyridine-3-carboxylic acid (1,3,3-trimethyl-bicyclo[2.2.1]hept-2-yl)-amide] | 2600 |  |  |  | 900 | 28 |  | 
CC(NC(=O)c1nn(-c2ccc(Cl)cc2Cl)c2c1CN(C(=O)OC(C)(C)C)C/C2=C\c1ccc(F)cc1)c1ccccn1 (stereo not drawn) [Cpd 20, (7E)-1-(2,4-dichloro-phenyl)-7-(4-fluoro-benzylidene)-3-(1-pyridin-2-yl-ethylcarbamoyl)-1,4,6,7-tetrahydro-pyrazolo[4,3-c]pyridine-5-carboxylic acid tert-butyl ester] | 40 | 14 | 20 |  |  |  |  | 
COc1ccc(/C=C2\CN(C(C)=O)Cc3c(C(=O)NC(C)c4ccccn4)nn(-c4ccc(Cl)cc4Cl)c32)cc1 (stereo not drawn) [Cpd 60, (7E)-5-acetyl-1-(2,4-dichloro-phenyl)-7-(4-methoxy-benzylidene)-4,5,6,7-tetrahydro-1H-pyrazolo[4,3-c]pyridine-3-carboxylic acid (1-pyridin-2-yl-ethyl)-amide] | 20 |  | 7 |  |  |  | 28 | 
COC(=O)N1C/C(=C\c2ccc(F)cc2)c2c(c(C(=O)NC(C)c3ccccn3)nn2-c2ccc(Cl)cc2)C1 (stereo not drawn) [Cpd 79, (7E)-1-(4-chloro-phenyl)-7-(4-fluoro-benzylidene)-3-(1-pyridin-2-yl-ethylcarbamoyl)-1,4,6,7-tetrahydro-pyrazolo[4,3-c]pyridine-5-carboxylic acid methyl ester] | 10 | 13 | 3 |  |  |  |  | 
